Reference: ChEMBL document CHEMBL4725437, “P450s under Restriction (PURE) Screen Using HepaRG and Primary Human Hepatocytes for Discovery of Novel HBV Antivirals” (ACS Med Chem Lett, 2020)
Calls of active or inactive are those of the source. The rule behind the calls is not given here.

Assays:
Hepatitis B virus [1] = assay: Antiviral activity against Hepatitis B virus infected in human HepaRG cells assessed as inhibition of […] measured on day 11 post-infection by chemiluminescence immunostaining assay; assay type: functional, organism-based; settings: 264 h
Hepatitis B virus [2] = assay: (§1) Antiviral activity against Hepatitis B virus infected in human HepaRG cells assessed as inhibition of […] under CYP450 restriction pre-treated for 1 hr with CYP450 inhibitors ABT and SKF-525A on day 5 post-infection followed by removal of media and supplemented with fresh media containing diluted compound and further incubated for 3 days then followed by treatment for 1 hr with CYP450 inhibitors ABT and SKF-525A on day 8 post-infection followed by removal of media and supplemented with fresh media containing diluted compound and further incubated for 3 days in presence of 25 uM SKF-525A and measured on day 11 post-infection by chemiluminescence immunostaining assay; assay type: functional, organism-based
[3] = Half life in human primary hepatocytes at 1 uM measured up to 3 hrs by LC-MS/MS analysis; assay type: ADME, cell-based, Hepatocyte
[4] = Half life in human primary hepatocytes at 1 uM measured up to 3 hrs under CYP450 restriction in presence of CYP450 inhibitiors ABT and SKF-525A by LC-MS/MS analysis; assay type: ADME, cell-based, Hepatocyte
[5] = as §1, with “Ratio of EC50 for antiviral activity against” for “Antiviral activity against”, “assessed as fold change for inhibition of HBV DNA replication under normal condition to EC50 for inhibition of” for “assessed as inhibition of”; assay type: functional; settings: time 6 day
[6] = Cytotoxicity against human HepaRG cells assessed as effect on cell viability; assay type: cell-based
CYP1A2 [7] = target: T1, CYP1A2 (Homo sapiens, UniProt P05177); assay: (§2) Inhibition of CYP1A2 in HBV-infected human HepaRG cells at 50 uM using luciferin-1A2 as substrate treated for 1 hr on day 5 post-infection followed by removal of media and supplemented with fresh media and further incubated for 3 days by P450-Glo chemiluminescent assay relative to control; assay type: ADME, tissue-based; settings: probe luciferin-1A2
T1 sequence (P05177 whole entry): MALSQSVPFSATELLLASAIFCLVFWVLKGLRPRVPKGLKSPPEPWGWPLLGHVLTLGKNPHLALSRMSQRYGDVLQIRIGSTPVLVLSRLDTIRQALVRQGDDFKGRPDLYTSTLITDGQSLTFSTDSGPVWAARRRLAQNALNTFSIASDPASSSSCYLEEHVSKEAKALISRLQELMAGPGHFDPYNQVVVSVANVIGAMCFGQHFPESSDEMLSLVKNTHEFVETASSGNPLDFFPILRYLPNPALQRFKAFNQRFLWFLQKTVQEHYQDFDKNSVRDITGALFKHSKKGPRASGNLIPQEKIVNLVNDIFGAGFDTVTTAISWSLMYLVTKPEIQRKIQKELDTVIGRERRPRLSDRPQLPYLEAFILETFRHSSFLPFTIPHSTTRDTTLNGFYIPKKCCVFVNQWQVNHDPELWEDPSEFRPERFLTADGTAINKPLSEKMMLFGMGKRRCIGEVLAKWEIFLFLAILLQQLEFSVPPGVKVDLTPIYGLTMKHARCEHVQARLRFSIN

CYP1A2 [8] = target: T1, CYP1A2; assay: as §2, with “days then followed by treatment for 1 hr on day 8 post-infection followed by removal of media and supplemented with fresh media and further incubated for 3 days and measured on day 11 post-infection” for “days”; assay type: ADME, tissue-based; settings: probe luciferin-1A2
Cytochrome P450 3A4 [9] = target: T2, Cytochrome P450 3A4 (Homo sapiens, UniProt P08684); assay: (§3) Inhibition of CYP3A4 in HBV-infected human primary hepatocytes at 5 to 100 uM using luciferin-IPA as substrate treated for 1 hr on day 5 post-infection followed by removal of media and supplemented with fresh media and further incubated for 3 days then followed by treatment for 1 hr on day 8 post-infection followed by removal of media and supplemented with fresh media and further incubated for 3 days and measured on day 11 post-infection by P450-Glo chemiluminescent assay; assay type: ADME, tissue-based, Primary hepatocyte; settings: dose 5-100 µM
HepaRG [10] = assay: Cytotoxicity against human HepaRG cells infected with HBV assessed as reduction in cell viability at 5 to 100 uM treated for 1 hr on day 5 post-infection followed by removal of media and supplemented with fresh media and further incubated for 3 days then followed by treatment for 1 hr on day 8 post-infection followed by removal of media and supplemented with fresh media and further incubated for 3 days and measured on day 11 post-infection by Celltiter-Glo assay; assay type: cell-based; settings: dose 5-100 µM
Hepatocyte = assay: (§4) Cytotoxicity against human primary hepatocytes infected with HBV assessed as reduction in cell viability at 50 uM treated for 1 hr on day 5 post-infection followed by removal of media and supplemented with fresh media and further incubated for 3 days then followed by treatment for 1 hr on day 8 post-infection followed by removal of media and supplemented with fresh media and further incubated for 3 days in presence of 10 mM ABT and measured on day 11 post-infection by Celltiter-Glo assay relative to control; assay type: cell-based
CYP2C9 [11] = target: T3, CYP2C9 (Homo sapiens, UniProt P11712); assay: (§5) Inhibition of CYP2C9 in HBV-infected human HepaRG cells at 50 uM using luciferin-H as substrate treated for 1 hr on day 5 post-infection followed by removal of media and supplemented with fresh media and further incubated for 3 days then followed by treatment for 1 hr on day 8 post-infection followed by removal of media and supplemented with fresh media and further incubated for 3 days in presence of 10 mM ABT and measured on day 11 post-infection by P450-Glo chemiluminescent assay relative to control; assay type: ADME, tissue-based; settings: probe luciferin-H, with ABT 10 mM
CYP3A4 [12] = target: T4, CYP3A4 (Homo sapiens, UniProt P08684); assay: (§6) Inhibition of CYP3A4 in HBV-infected human HepaRG cells at 50 uM using luciferin-IPA as substrate treated for 1 hr on day 5 post-infection followed by removal of media and supplemented with fresh media and further incubated for 3 days by P450-Glo chemiluminescent assay relative to control; assay type: ADME, tissue-based; settings: probe luciferin-IPA
Cytochrome P450 3A4 [13] = target: T2, Cytochrome P450 3A4; assay: as §3, with “HepaRG cells” for “primary hepatocytes”; assay type: ADME, tissue-based; settings: dose 5-100 µM
Hepatitis B virus [14] = assay: as §4, with “Antiviral activity” for “Cytotoxicity”, “against Hepatitis B virus infected in” for “against”, “hepatocytes” for “hepatocytes infected with HBV”, “HbsAg secretion level” for “cell viability”, “chemiluminescence immunostaining” for “Celltiter-Glo”; assay type: functional, organism-based; settings: Primary hepatocyte
CYP2C9 [15] = target: T3, CYP2C9; assay: as §5, with “days” for “days in presence of 10 mM ABT”; assay type: ADME, tissue-based; settings: probe luciferin-H
CYP3A4 [16] = target: T4, CYP3A4; assay: as §6, with “days then followed by treatment for 1 hr on day 8 post-infection followed by removal of media and supplemented with fresh media and further incubated for 3 days and measured on day 11 post-infection” for “days”; assay type: ADME, tissue-based; settings: probe luciferin-IPA
CYP3A4 [17] = target: T4, CYP3A4; assay: as §5, with “CYP3A4” for “CYP2C9”, “luciferin-IPA” for “luciferin-H”; assay type: ADME, tissue-based; settings: probe luciferin-IPA, with ABT 10 mM
CYP2C9 [18] = target: T3, CYP2C9; assay: (§7) Inhibition of CYP2C9 in HBV-infected human HepaRG cells at 50 uM using luciferin-H as substrate treated for 1 hr on day 5 post-infection followed by removal of media and supplemented with fresh media and further incubated for 3 days in presence of 10 mM ABT by P450-Glo chemiluminescent assay relative to control; assay type: ADME, tissue-based; settings: probe luciferin-H, with ABT 10 mM
CYP3A4 [19] = target: T4, CYP3A4; assay: as §7, with “CYP3A4” for “CYP2C9”, “luciferin-IPA” for “luciferin-H”; assay type: ADME, tissue-based; settings: probe luciferin-IPA, with ABT 10 mM
Cytochrome P450 2C9 [20] = target: T5, Cytochrome P450 2C9 (Homo sapiens, UniProt P11712); assay: as §5, with “at 5 to 100” for “at 50”, “days” for “days in presence of 10 mM ABT”, “assay” for “assay relative to control”; assay type: ADME, tissue-based; settings: dose 5-100 µM
CYP1A2 [21] = target: T1, CYP1A2; assay: as §5, with “CYP1A2” for “CYP2C9”, “luciferin-1A2” for “luciferin-H”; assay type: ADME, tissue-based; settings: probe luciferin-1A2, with ABT 10 mM
CYP2C9 [22] = target: T3, CYP2C9; assay: Inhibition of CYP2C9 in HBV-infected human HepaRG cells at 50 uM using luciferin-H as substrate treated for 1 hr on day 5 post-infection followed by removal of media and supplemented with fresh media and further incubated for 3 days by P450-Glo chemiluminescent assay relative to control; assay type: ADME, tissue-based; settings: probe luciferin-H
Cytochrome P450 1A2 [23] = target: T6, Cytochrome P450 1A2 (Homo sapiens, UniProt P05177); assay: as §3, with “CYP1A2” for “CYP3A4”, “hepatocytes cells” for “hepatocytes”, “luciferin-1A2” for “luciferin-IPA”; assay type: ADME, tissue-based, Primary hepatocyte; settings: dose 5-100 µM
T6 sequence (P05177 whole entry): T1 sequence (P05177 whole entry)

HepaRG [24] = assay: as §4, with “HepaRG cells” for “primary hepatocytes”, “assay” for “assay relative to control”; assay type: cell-based
CYP1A2 [25] = target: T1, CYP1A2; assay: as §7, with “CYP1A2” for “CYP2C9”, “luciferin-1A2” for “luciferin-H”; assay type: ADME, tissue-based; settings: probe luciferin-1A2, with ABT 10 mM
Cytochrome P450 1A2 [26] = target: T6, Cytochrome P450 1A2; assay: as §3, with “CYP1A2” for “CYP3A4”, “HepaRG cells” for “primary hepatocytes”, “luciferin-1A2” for “luciferin-IPA”; assay type: ADME, tissue-based; settings: dose 5-100 µM
Cytochrome P450 2C9 [27] = target: T5, Cytochrome P450 2C9; assay: as §3, with “CYP2C9” for “CYP3A4”, “luciferin-H” for “luciferin-IPA”; assay type: ADME, tissue-based, Primary hepatocyte; settings: dose 5-100 µM
Hepatitis B virus [28] = assay: (§8) Antiviral activity against Hepatitis B virus infected in human HepaRG cells assessed as reduction in HbsAg secretion level at 50 uM treated for 1 hr on day 5 post-infection followed by removal of media and supplemented with fresh media and further incubated for 3 B37days then followed by treatment for 1 hr on day 8 post-infection followed by removal of media and supplemented with fresh media and further incubated for 3 days in presence of 10 mM ABT and measured on day 11 post-infection by chemiluminescence immunostaining assay; assay type: functional, organism-based
Hepatitis B virus [29] = assay: as §8, with “primary hepatocytes” for “HepaRG cells”, “25” for “50”, “days” for “B37days”; assay type: functional, Primary hepatocyte; design: scale not given: the % may be the effect or the level left

T4 sequence (P08684 whole entry): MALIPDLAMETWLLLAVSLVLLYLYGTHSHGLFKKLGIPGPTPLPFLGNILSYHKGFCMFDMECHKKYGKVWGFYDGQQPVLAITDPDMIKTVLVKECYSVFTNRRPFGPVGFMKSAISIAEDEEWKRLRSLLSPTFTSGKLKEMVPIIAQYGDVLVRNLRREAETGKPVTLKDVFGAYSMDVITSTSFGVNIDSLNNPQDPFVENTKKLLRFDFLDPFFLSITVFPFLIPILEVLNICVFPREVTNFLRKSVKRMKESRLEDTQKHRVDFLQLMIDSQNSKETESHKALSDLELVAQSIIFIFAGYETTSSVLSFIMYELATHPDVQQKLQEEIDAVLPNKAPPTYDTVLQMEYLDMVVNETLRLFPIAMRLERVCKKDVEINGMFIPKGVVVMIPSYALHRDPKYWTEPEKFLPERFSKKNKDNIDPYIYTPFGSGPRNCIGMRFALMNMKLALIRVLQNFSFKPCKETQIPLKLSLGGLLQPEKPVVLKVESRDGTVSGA
T3 sequence (P11712 whole entry): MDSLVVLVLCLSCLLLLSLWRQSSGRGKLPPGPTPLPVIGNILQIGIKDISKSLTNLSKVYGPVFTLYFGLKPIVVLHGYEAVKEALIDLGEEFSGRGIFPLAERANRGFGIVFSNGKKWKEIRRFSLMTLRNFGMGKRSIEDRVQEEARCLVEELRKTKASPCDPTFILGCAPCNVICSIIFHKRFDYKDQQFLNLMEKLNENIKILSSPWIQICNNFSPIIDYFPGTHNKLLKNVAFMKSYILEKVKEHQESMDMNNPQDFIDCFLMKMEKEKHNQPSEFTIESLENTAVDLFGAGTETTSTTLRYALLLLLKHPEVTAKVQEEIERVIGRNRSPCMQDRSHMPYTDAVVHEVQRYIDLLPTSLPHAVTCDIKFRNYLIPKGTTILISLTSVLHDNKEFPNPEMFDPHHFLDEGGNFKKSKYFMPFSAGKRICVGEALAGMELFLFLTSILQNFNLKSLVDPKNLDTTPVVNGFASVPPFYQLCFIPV
T2 sequence (P08684 whole entry): as the sequence (P08684 whole entry) above
T5 sequence (P11712 whole entry): as the sequence (P11712 whole entry) above

COc1ccccc1/C(Br)=C(\NC(=O)c1ccc([N+](=O)[O-])cc1)C(=O)N1CCCCC1
EC50 (Hepatitis B virus [1]): 5700 nM | EC50 (Hepatitis B virus [2]): 780 nM | half-life at 1 µM [3]: 0.0483 h | half-life at 1 µM [4]: > 9.33 h | Ratio EC50 [5]: 7.3 | CC50 [6]: > 30000 nM

COC(=O)C1=C(C)NC(c2ncc(F)cc2F)=N[C@H]1c1ccc(F)cc1Cl
EC50 (Hepatitis B virus [1]): 220 nM | EC50 (Hepatitis B virus [2]): 260 nM | half-life at 1 µM [3]: 3.15 h | half-life at 1 µM [4]: 7.18 h

CCCC(C(=O)OCCN(CC)CC)(c1ccccc1)c1ccccc1 [PROADIFEN]
inhibition at 1 h, 50 µM (CYP1A2 [7]): 2.2% | inhibition at 1 h, 50 µM (CYP1A2 [8]): 30.8% | inhibition (INH) (Cytochrome P450 3A4 [9]): Active | Activity (HepaRG [10]): Non-Toxic | Activity (Hepatocyte): 10% | inhibition at 1 h, 50 µM (CYP2C9 [11]): 82.1% | inhibition at 1 h, 50 µM (CYP3A4 [12]): 80.3% | inhibition (INH) (Cytochrome P450 3A4 [13]): Active | Activity (Hepatitis B virus [14]): inactive | inhibition at 1 h, 50 µM (CYP2C9 [15]): 42.2% | inhibition at 1 h, 50 µM (CYP3A4 [16]): 93% | inhibition at 1 h, 50 µM (CYP3A4 [17]): 90.3% | inhibition at 1 h, 50 µM (CYP2C9 [18]): 36.9% | inhibition at 1 h, 50 µM (CYP3A4 [19]): 83.3% | inhibition (INH) (Cytochrome P450 2C9 [20]): Active | inhibition at 1 h, 50 µM (CYP1A2 [21]): 88.8% | inhibition at 1 h, 50 µM (CYP2C9 [22]): 21.4% | inhibition (INH) (Cytochrome P450 1A2 [23]): Active | Activity (HepaRG [24]): Non-Toxic | inhibition at 1 h, 50 µM (CYP1A2 [25]): 39.2% | inhibition (INH) (Cytochrome P450 1A2 [26]): Active | inhibition (INH) (Cytochrome P450 2C9 [27]): Active | Activity (Hepatitis B virus [28]): inactive | Activity (Hepatitis B virus [29]): 20%

O=C(Nc1ccc(F)cc1)c1ccc(CF)c(S(=O)(=O)N2CCOCC(O)C2)c1 (centres undefined)
EC50 (Hepatitis B virus [1]): 2100 nM | EC50 (Hepatitis B virus [2]): 200 nM | half-life at 1 µM [3]: 0.342 h | half-life at 1 µM [4]: 2.65 h | Ratio EC50 [5]: 11 | CC50 [6]: > 30000 nM

CCOC(=O)C1=C(CN2CCOCC2)NC(c2nccs2)=NC1c1ccc(F)cc1Br (centres undefined)
EC50 (Hepatitis B virus [1]): 590 nM | EC50 (Hepatitis B virus [2]): 11 nM | half-life at 1 µM [3]: 0.128 h | half-life at 1 µM [4]: > 9.33 h
